In US20070037840A1, “Tricyclic benzimidazoles” (Altana Pharma AG, priority 2003, published 2007):

Key:
[1] = tested on: pentagastrin-stimulated acid secretion of the perfused rat stomach; assay: Secretion-inhibiting action on the perfused rat stomach (pentagastrin-stimulated acid secretion); format: in vivo; conditions: anesthetized CD rat, dose 2.0 μmol/kg i.d.
Excerpt: Testing of the Secretion-Inhibiting Action on the Perfused Rat Stomach
In Table A which follows, the influence of the compounds of the formula 1 according to the invention on the pentagastrin-stimulated acid secretion of the perfused rat stomach after intraduodenal administration in vivo is shown.
The abdomen of anesthetized rats (CD rat, female, 200-250 g; 1.5 g/kg i.m. urethane) was opened after tracheotomy by a median upper abdominal incision and a PVC catheter was fixed transorally in the esophagus and another via the pylorus such that the ends of the tubes just projected into the gastric lumen. The catheter leading from the pylorus led outward into the right abdominal wall through a side opening.
After thorough rinsing (about 50-100 ml), warm (37° C.) physiological NaCl solution was continuously passed through the stomach (0.5 ml/min, pH 6.8-6.9; Braun-Unita I). The pH (pH meter 632, glass electrode EA 147; φ=5 mm, Metrohm) and, by titration with a freshly prepared 0.01N NaOH solution to pH 7 (Dosimat 665 Metrohm), the secreted HCl were determined in the effluent in each case collected at an interval of 15 minutes.
The gastric secretion was stimulated by continuous infusion of […] (=1.65 ml/h) of i.v. pentagastrin (left femoral vein) about 30 min after the end of the operation (i.e. after determination of 2 preliminary fractions). The substances to be tested were administered intraduodenally in a 2.5 ml/kg liquid volume 60 min after the start of the continuous pentagastrin infusion. The body temperature of the animals was kept at a constant 37.8-38° C. by infrared irradiation and heat pads (automatic, stepless control by means of a rectal temperature sensor).

melting point [°C]	SMILES	Inhibition of acid secretion [1] [%]
–	COCCO[C@@H]1c2ccc3c(nc(C)n3C)c2N[C@H](c2ccccc2)[C@H]1O [Example 1, (6R,7R,8R)-2,3-Dimethyl-7-hydroxy-6-(2-methoxyethoxy)-8-phenyl-6,7,8,9-tetrahydro-3H-imidazo[4,5h]quinoline]	>50
–	COCCO[C@H]1c2ccc3c(nc(C)n3C)c2N[C@H](c2ccccc2)[C@H]1O [Example 2, (6S,7R,8R)-2,3-Dimethyl-7-hydroxy-6-(2-methoxyethoxy)-8-phenyl-6,7,8,9-tetrahydro-3H-imidazo[4,5-]quinoline]	<50
–	CCO[C@@H]1c2ccc3c(nc(C)n3C)c2N[C@H](c2ccccc2)[C@H]1O [Example 3, (6R,7R,8R)-2,3-Dimethyl-6-ethoxy-7-hydroxy-8-phenyl-6,7,8,9-tetrehydro-3H-imidazo[4,5h]-quinoline]	>50
169.9	CCO[C@H]1c2ccc3c(nc(C)n3C)c2N[C@H](c2ccccc2)[C@H]1O [Example 4, (6S,7R,8R)-2,3-Dimethyl-6-ethoxy-7-hydroxy-8-phenyl-6,7,8,9-tetrahydro-3H-imidazo[4,5-h]-quinoline]	<50
224.7	Cc1nc2c3c(ccc2n1C)[C@@H](O)[C@H](O)[C@@H](c1ccccc1)N3 [Example 5, (6R,7R,8R)-2,3-Dimethyl-6,7-dihydroxyl-8-phenyl-6,7,8,9-tetrahydro-3H-imidazo[4,5-h]quinoline]	>50
235.4	Cc1nc2c3c(ccc2n1C)[C@H](O)[C@H](O)[C@@H](c1ccccc1)N3 [Example 6, (6S,7R,8R)-2,3-Dimethyl-6,7-dihydroxy-8-phenyl-6,7,8,9tetrahydro-3H-imidazo[4,5-h]quinoline]	<50
–	Cc1nc2c3c(ccc2n1C)[C@@H](OCC(F)F)[C@H](O)[C@@H](c1ccccc1)N3 [Example 7, (6R,7R,8R)-2,3-Dimethyl-7-hydroxy-6-(2,2-difluoroethoxy)-8-phenyl-6,7,8,9-tetrahydro-3H-imidazo[4,5-h]quinoline]	>50
